This is an account of results in ChEMBL document CHEMBL5247586, “Discovery of fusidic acid derivatives as novel STING inhibitors for treatment of sepsis” (Eur J Med Chem, 2022).

SMILES strings stand for the structures. The source made the active and inactive calls. The calls are words filed in the database; no cut-off is given here.

In data set [1] the test system is Mus musculus. Kind of data set: Protective activity against LPS induced sepsis in BALB/c mouse model of acute liver injury assessed as reduction in inflammatory cell infiltration at 1.25 to 5 mg/kg, IG administered once a day for 3 days followed by LPS stimulation for 12 hrs starting from 2 hrs post last dose by hematoxylin and eosin staining based analysis. The class given is functional, organism-based. As to conditions: dose 1.25-5 mg/kg, time 86.0 hrs.

The subject of data set [2] is Mus musculus. Kind of data set: Antiinflammatory activity in BALB/c mouse model of LPS induced sepsis assessed as inhibition of TNF-alpha production at 1.25 to 5 mg/kg, IG administered once a day for 3 days followed by LPS stimulation for 12 hrs starting from 2 hrs post last dose by qRT-PCR analysis. The class given is functional, organism-based. The conditions noted are these: dose 1.25-5 mg/kg, time 86.0 hrs. (Real-time PCR tracks product formation cycle by cycle.)

Data set [3] concerns RAW264.7. Kind of data set: Anti inflammatory activity in LPS-induced mouse RAW264.7 cells assessed as suppression of IFN- beta levels at 0.5 to 2 uM preincubated with compound for 2 hrs followed by LPS stimulation for 6 hrs by ELISA method. The class given is functional, cell-based. The conditions noted are these: dose 0.5-2 µM, time 8.0 hrs.
Data set [4] can be described thus: Half life in Sprague-Dawley rat administered intragastrically. The class given is ADME. The conditions noted are these: in vivo, po, route ig.
In data set [5] the target is T1, Stimulator of interferon genes protein (Mus musculus) (UniProt Q3TBT3).
T1 sequence (whole entry): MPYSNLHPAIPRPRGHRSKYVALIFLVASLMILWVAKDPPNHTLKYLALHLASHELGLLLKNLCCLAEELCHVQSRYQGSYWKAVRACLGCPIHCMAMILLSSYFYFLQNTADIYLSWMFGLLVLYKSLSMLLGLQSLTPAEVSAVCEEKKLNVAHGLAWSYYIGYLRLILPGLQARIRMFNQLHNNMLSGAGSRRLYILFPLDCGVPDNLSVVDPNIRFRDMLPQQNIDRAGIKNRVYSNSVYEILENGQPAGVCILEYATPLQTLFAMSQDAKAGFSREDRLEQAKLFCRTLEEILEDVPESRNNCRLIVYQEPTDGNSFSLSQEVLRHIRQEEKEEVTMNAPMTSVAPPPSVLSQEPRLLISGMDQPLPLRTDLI
Briefly: In vivo inhibition of STING in BALB/c mouse model of LPS induced sepsis assessed as inhibition of upregulation of phosphorylated IkappaB protein expression at 1.25 to 5 mg/kg, IG administered once a day for 3 days followed by LPS stimulation for 12 hrs starting from 2 hrs post last dose by Western blot analysis. The class given is functional, organism-based. The conditions noted are these: dose 1.25-5 mg/kg, time 86.0 hrs.

The subject of data set [6] is RAW264.7. Kind of data set: Inhibition of STING protein expression in LPS-induced mouse RAW264.7 cells preincubated with compound for 2 hrs followed by LPS stimulation and measured after 6 hrs by Western blot analysis. The class given is functional, cell-based. The conditions noted are these: dose 0.5-2 µM, time 8.0 hrs. For orientation: In western blotting, separated proteins are transferred to a membrane and probed.

Data set [7] is described as follows: Cmax in Sprague-Dawley rat administered intragastrically. The class given is ADME. More on the design: route ig. The conditions noted are these: in vivo, po.

As a reminder, the half-life is the time in which the quantity being followed falls by half. Read a low half-life as rapid decline. As usually defined, the Cmax is the highest concentration seen after dosing. For the compound `C=CCONC(=O)CCSSCCC(=O)O[C@@H]1CC[C@@]2(C)[C@@H](CC[C@@]3(C)[C@H]2[C@H](O)C[C@H]2/C(=C(\CCC=C(C)C)C(=O)OCc4ccccc4)[C@@H](OC(C)=O)C[C@@]23C)[C@@H]1C`, the outcome with Mus musculus [1] and in the data set with RAW264.7 [3] was Active. Further, the inhibition result (in the data set on Mus musculus [2]; in data set [5]) was “Active” throughout. In data set [4], the half-life is 1.11 h. For the same compound, the inhibition entry with RAW264.7 [6] is “Dose-Dependent Effect”. The compound further displayed a Cmax in data set [7] of 66.5 ng/mL.
